The target in test [1] is T1, 5-HT1a (Homo sapiens, UniProt P08908).
T1 sequence (P08908 1-422): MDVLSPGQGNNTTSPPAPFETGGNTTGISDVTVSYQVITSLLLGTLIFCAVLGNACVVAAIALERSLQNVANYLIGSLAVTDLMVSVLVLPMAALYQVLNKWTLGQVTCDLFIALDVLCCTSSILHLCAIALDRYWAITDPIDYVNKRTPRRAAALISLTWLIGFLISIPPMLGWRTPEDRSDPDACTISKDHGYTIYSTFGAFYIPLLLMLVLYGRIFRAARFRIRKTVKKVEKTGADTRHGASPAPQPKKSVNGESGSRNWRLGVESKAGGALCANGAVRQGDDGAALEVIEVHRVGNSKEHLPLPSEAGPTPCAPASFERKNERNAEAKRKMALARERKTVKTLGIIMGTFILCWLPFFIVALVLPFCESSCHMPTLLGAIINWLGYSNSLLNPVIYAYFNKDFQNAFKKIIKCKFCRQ
As to the kind of experiment: 5-HT1a IC50. Type of test: binding.

Test [2] has as its system α1. As to the kind of experiment: α1 IC50. Format: binding.
The target in test [3] is T2, D2 (Rattus norvegicus, UniProt P61169). As to the kind of experiment: Affinity for the dopamine autoreceptor: 3H-quinpirole (Quin.) binding, homogenized rat striatal brain tissue. Further details: homogenized rat striatal brain tissue; from tissue; host or cells: rat striatal brain tissue, homogenized.
T2 sequence (P61169 whole entry): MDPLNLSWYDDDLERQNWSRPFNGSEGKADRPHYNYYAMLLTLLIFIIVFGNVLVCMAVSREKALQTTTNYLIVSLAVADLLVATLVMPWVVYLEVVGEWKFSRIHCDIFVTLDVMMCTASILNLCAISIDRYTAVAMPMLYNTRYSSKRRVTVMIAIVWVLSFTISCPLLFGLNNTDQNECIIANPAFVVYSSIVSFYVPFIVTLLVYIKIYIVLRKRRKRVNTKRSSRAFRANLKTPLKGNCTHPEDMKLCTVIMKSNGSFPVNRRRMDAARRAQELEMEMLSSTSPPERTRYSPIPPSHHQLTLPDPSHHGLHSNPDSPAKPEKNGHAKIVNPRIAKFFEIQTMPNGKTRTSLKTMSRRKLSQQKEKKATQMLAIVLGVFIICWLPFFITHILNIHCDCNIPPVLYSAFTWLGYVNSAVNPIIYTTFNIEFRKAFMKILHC
In test [4] the target is T2, D2. As to the kind of experiment: Affinity for the dopamine D-2 receptor: 3H-spiroperidol (Spiper.) binding, homogenized limbic brain tissue. Further details: homogenized limbic brain tissue is incubated with; from tissue; host or cells: limbic brain tissue, homogenized.

In general, IC50 refers to the concentration that inhibits the measured activity by half. Lower therefore signals greater potency in that assay.

Take `O=C1CCC(=O)N1CCCNCC1CCc2ccc(O)cc2O1` (centres unmarked) [Example 3d, 1-{3-[(7-Hydroxy-chroman-2-ylmethyl)-amino]-propyl}-pyrrolidine-2,5-dione]: the IC50 in test [1] is 303 nM; in test [2], 277 nM; in test [3] (3H-quinpirole, rat striatal brain tissue) it was 9.29 nM; in test [4] it was 2180 nM. Besides, the Ratio in test [3] (not defined in print, values match D2 Spiper. IC50 / D2 Quin. IC50) came out at 234.

Source of the values: patent US5541199A, “Chroman-2-ylmethylamino derivatives” (American Home Products Corporation, priority 1995, dated 1996).
